Test results from patent publication US20210115104A1, “AMYLIN ANALOGUES” (Zealand Pharma A/S, priority 2015, published 2021).
*1 amine or outer side, *2 acyl side, *3 side chain or, on linkers, in order; H or OH if unused. Where a SMILES comes first, the peptide text is derived from it. Bridges are numbered along the chain shown (N, C = ends). [ ]: non-standard residue; d: D form. The star is where a group is joined. C20 diacid = O=C(O)CCCCCCCCCCCCCCCCCCC(=O)*; γGlu = O=C(O)[C@H](CCC(=O)[*:2])N[*:1]; Hyp = O=C(O)[C@@H]1C[C@@H](O)CN1; NMeI = CC[C@H](C)[C@H](NC)C(=O)O; Sar = CNCC(=O)O

Key:
[1] = biological target: T1, human calcitonin receptor (hCTR2) (Homo sapiens, UniProt P30988); test: hCTR2 cAMP assay (AlphaScreen) in COS7 cells; format: cell-based; conditions: cAMP induction, COS7 cells expressing hCTR2; Table 1; read-out: hCTR2 EC50
T1 construct: expressed in transfected cells
T1 sequence (P30988 25-474): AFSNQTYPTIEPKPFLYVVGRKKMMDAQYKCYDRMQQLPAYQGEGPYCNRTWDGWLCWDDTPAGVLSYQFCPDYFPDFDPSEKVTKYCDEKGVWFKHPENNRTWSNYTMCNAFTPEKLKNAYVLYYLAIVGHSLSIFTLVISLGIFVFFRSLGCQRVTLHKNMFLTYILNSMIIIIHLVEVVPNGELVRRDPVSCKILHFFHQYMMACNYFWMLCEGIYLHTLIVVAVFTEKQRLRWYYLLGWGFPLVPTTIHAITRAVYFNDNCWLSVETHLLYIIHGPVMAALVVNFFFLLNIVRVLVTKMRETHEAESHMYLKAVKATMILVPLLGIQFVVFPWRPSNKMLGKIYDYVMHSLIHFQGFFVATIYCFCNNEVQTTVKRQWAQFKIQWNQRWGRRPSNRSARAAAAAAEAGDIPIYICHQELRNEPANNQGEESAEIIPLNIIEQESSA
Procedure, shortened: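 Stable hCTR2 clone in RAMP-naïve COS7 cells stimulated 15 min at 37 °C with increasing peptide concentrations in Tyrode buffer pH 7.4 containing IBMX and 0.1% casein. cAMP in lysates measured by AlphaScreen; EC50 from 4-parameter logistic fit.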

[2] = Assessment of physical stability (Thioflavin T fibrillation); format: physicochemical; design: key: FND = fibrillation not detected; FD = fibrillation detected; conditions: 1 mg/ml, 40° C., ThT; for Fibrillation pH 4.0 (Ac): 50 mM acetate buffer pH 4.0, 96 hours; for Fibrillation pH 7.0 (His): 50 mM histidine buffer pH 7.0, 96 hours; for Fibrillation pH 7.0 (Phos.): 50 mM phosphate buffer pH 7.0, 96 hours
Procedure, shortened: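 1 mg/ml peptide with 40 μM ThT in 50 mM phosphate pH 7.0, 50 mM histidine pH 7.0 or 50 mM acetate pH 4.0, in triplicate. Fluorescence read every 10 min after 300 s agitation over 96 h at 40 °C. Lag-time (h) is the intersection of linear fits to stable and growth phases.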

[3] = biological target: T2, human amylin receptor 3 (hAMYR3), hCTR2 co-expressed with hRAMP3 (Homo sapiens, UniProt O60896+P30988); test: hAMYR3 cAMP assay (AlphaScreen) in COS7 cells; format: cell-based; conditions: cAMP induction, COS7 cells expressing hAMYR3; Table 1; read-out: hAMYR3 EC50
T2 construct: expressed in transfected cells
T2 sequence (P30988 25-474): T1 sequence (P30988 25-474)
T2 sequence (O60896 24-148 partner): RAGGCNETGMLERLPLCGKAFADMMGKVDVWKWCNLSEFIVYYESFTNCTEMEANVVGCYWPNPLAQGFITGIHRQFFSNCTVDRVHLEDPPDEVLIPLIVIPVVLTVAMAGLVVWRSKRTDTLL
Procedure, shortened: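 Stable COS7 clone co-expressing hCTR2 and hRAMP3 was exposed to increasing peptide concentrations in Tyrode buffer (pH 7.4) with 100 µM IBMX and 0.1% casein for 15 min at 37 °C. Lysate cAMP was measured by AlphaScreen; EC50 came from 4-parameter logistic fitting.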

| Compound | EC50 [1] | Fibrillation pH 4.0 (Ac) [2] | Fibrillation pH 7.0 (His) [2] | Fibrillation pH 7.0 (Phos.) [2] | EC50 [3] |
| --- | --- | --- | --- | --- | --- |
| CC[C@H](C)[C@@H](C(=O)N[C@@H](CC(C)C)C(=O)N[C@@H](CO)C(=O)N[C@@H](CO)C(=O)N[C@H](C(=O)N[C@@H](CCC(=O)O)C(=O)N[C@H](C(=O)NCC(=O)N[C@@H](CO)C(=O)N[C@@H](CCC(=O)O)C(=O)N[C@H](C(=O)N1CCC[C@H]1C(N)=O)[C@@H](C)O)C(C)C)[C@@H](C)O)N(C)C(=O)[C@H](C)NC(=O)CN(C)C(=O)[C@H](Cc1ccccc1)NC(=O)[C@H](CO)NC(=O)[C@H](CO)NC(=O)[C@H](CCCNC(=N)N)NC(=O)[C@H](Cc1c[nH]cn1)NC(=O)[C@H](CC(C)C)NC(=O)[C@H](Cc1ccccc1)NC(=O)[C@H](CC(=O)O)NC(=O)[C@H](C)NC(=O)[C@H](CC(C)C)NC(=O)[C@H](CCCNC(=N)N)NC(=O)[C@H](CCC(N)=O)NC(=O)[C@@H](NC(=O)[C@H](C)NC(=O)[C@@H]1CSSC[C@H](NC(=O)[C@H](CCCNC(=N)N)NC(=O)CC[C@H](NC(=O)CCCCCCCCCCCCCCCCCCC(=O)O)C(=O)O)C(=O)N[C@@H](CC(N)=O)C(=O)N[C@@H]([C@@H](C)O)C(=O)N[C@@H](C)C(=O)N[C@@H]([C@@H](C)O)C(=O)N1)[C@@H](C)O [Compound 1, [19CD]-isoGlu-R-C( )-NTAT-C( )-ATQRLADFLHRSSF-Gly(Me)-A-Ile(Me)-LSSTEVGSETP-NH2] ({C20 diacid-γGlu}-RCNTATCATQRLADFLHRSSF[Sar]A[NMeI]LSSTEVGSETP-NH2; disulfide 2-7) | 0.079 nM | FND | FND | FND | 0.23 nM |
| CC[C@H](C)[C@@H](C(=O)N[C@@H](CC(C)C)C(=O)N[C@@H](CO)C(=O)N[C@@H](CO)C(=O)N[C@H](C(=O)N[C@@H](CCC(=O)O)C(=O)N[C@H](C(=O)NCC(=O)N[C@@H](CO)C(=O)N[C@@H](CCC(=O)O)C(=O)N[C@H](C(=O)N1CCC[C@H]1C(N)=O)[C@@H](C)O)C(C)C)[C@@H](C)O)N(C)C(=O)[C@H](C)NC(=O)CN(C)C(=O)[C@H](Cc1ccccc1)NC(=O)[C@@H](NC(=O)[C@H](CO)NC(=O)[C@H](CCCNC(=N)N)NC(=O)[C@H](Cc1c[nH]cn1)NC(=O)[C@H](CC(C)C)NC(=O)[C@H](Cc1ccccc1)NC(=O)[C@H](Cc1c[nH]cn1)NC(=O)[C@H](C)NC(=O)[C@H](CC(C)C)NC(=O)[C@H](CCCNC(=N)N)NC(=O)[C@H](CCC(N)=O)NC(=O)[C@@H](NC(=O)[C@H](C)NC(=O)[C@@H]1CSSC[C@H](NC(=O)[C@H](CCCNC(=N)N)NC(=O)CC[C@H](NC(=O)CCCCCCCCCCCCCCCCCCC(=O)O)C(=O)O)C(=O)N[C@@H](CC(N)=O)C(=O)N[C@@H]([C@@H](C)O)C(=O)N[C@@H](C)C(=O)N[C@@H]([C@@H](C)O)C(=O)N1)[C@@H](C)O)C(C)C [Compound 20, [19CD]-isoGlu-R-C( )-NTAT-C( )-ATQRLAHFLHRSVF-Gly(Me)-A-Ile(Me)-LSSTEVGSETP-NH2] ({C20 diacid-γGlu}-RCNTATCATQRLAHFLHRSVF[Sar]A[NMeI]LSSTEVGSETP-NH2; disulfide 2-7) | 0.19 nM | FND | FD | FND | 0.33 nM |
| CC[C@H](C)[C@@H](C(=O)N[C@@H](CC(C)C)C(=O)N[C@@H](CO)C(=O)N[C@@H](CO)C(=O)N[C@H](C(=O)N[C@@H](CCC(=O)O)C(=O)N[C@H](C(=O)NCC(=O)N[C@@H](CO)C(=O)N[C@@H](CCC(=O)O)C(=O)N[C@H](C(=O)N1CCC[C@H]1C(N)=O)[C@@H](C)O)C(C)C)[C@@H](C)O)N(C)C(=O)[C@H](C)NC(=O)CN(C)C(=O)[C@H](Cc1ccccc1)NC(=O)[C@H](CO)NC(=O)[C@@H](NC(=O)[C@H](CCCNC(=N)N)NC(=O)[C@H](Cc1c[nH]cn1)NC(=O)[C@H](CC(C)C)NC(=O)[C@H](Cc1ccccc1)NC(=O)[C@H](Cc1c[nH]cn1)NC(=O)[C@H](C)NC(=O)[C@H](CC(C)C)NC(=O)[C@H](CCCNC(=N)N)NC(=O)[C@H](CCC(N)=O)NC(=O)[C@@H](NC(=O)[C@H](C)NC(=O)[C@@H]1CSSC[C@H](NC(=O)[C@H](CCCNC(=N)N)NC(=O)CC[C@H](NC(=O)CCCCCCCCCCCCCCCCCCC(=O)O)C(=O)O)C(=O)N[C@@H](CC(N)=O)C(=O)N[C@@H]([C@@H](C)O)C(=O)N[C@@H](C)C(=O)N[C@@H]([C@@H](C)O)C(=O)N1)[C@@H](C)O)C(C)C [Compound 21, [19CD]-isoGlu-R-C( )-NTAT-C( )-ATQRLAHFLHRVSF-Gly(Me)-A-Ile(Me)-LSSTEVGSETP-NH2] ({C20 diacid-γGlu}-RCNTATCATQRLAHFLHRVSF[Sar]A[NMeI]LSSTEVGSETP-NH2; disulfide 2-7) | 0.12 nM | FND | FD | FD | 0.23 nM |
| CC[C@H](C)[C@@H](C(=O)N[C@@H](CC(C)C)C(=O)N[C@@H](CO)C(=O)N[C@@H](CO)C(=O)N[C@H](C(=O)N[C@@H](CC(=O)O)C(=O)N[C@H](C(=O)NCC(=O)N[C@@H](CO)C(=O)N[C@@H](CC(=O)O)C(=O)N[C@H](C(=O)N1CCC[C@H]1C(N)=O)[C@@H](C)O)C(C)C)[C@@H](C)O)N(C)C(=O)[C@H](C)NC(=O)CN(C)C(=O)[C@H](Cc1ccccc1)NC(=O)[C@H](CO)NC(=O)[C@H](CO)NC(=O)[C@H](CCCNC(=N)N)NC(=O)[C@H](Cc1c[nH]cn1)NC(=O)[C@H](CC(C)C)NC(=O)[C@H](Cc1ccccc1)NC(=O)[C@H](Cc1c[nH]cn1)NC(=O)[C@H](C)NC(=O)[C@H](CC(C)C)NC(=O)[C@H](CCCNC(=N)N)NC(=O)[C@H](CC(=O)O)NC(=O)[C@@H](NC(=O)[C@H](C)NC(=O)[C@@H]1CSSC[C@H](NC(=O)[C@H](CCCNC(=N)N)NC(=O)CC[C@H](NC(=O)CCCCCCCCCCCCCCCCCCC(=O)O)C(=O)O)C(=O)N2CCC[C@H]2C(=O)N[C@@H]([C@@H](C)O)C(=O)N[C@@H](C)C(=O)N[C@@H]([C@@H](C)O)C(=O)N1)[C@@H](C)O [Compound 27, [19CD]-isoGlu-R-C( )-PTAT-C( )-ATDRLAHFLHRSSF-Gly(Me)-A-Ile(Me)-LSSTDVGSDTP-NH2] ({C20 diacid-γGlu}-RCPTATCATDRLAHFLHRSSF[Sar]A[NMeI]LSSTDVGSDTP-NH2; disulfide 2-7) | 0.063 nM | FD | FD | FD | 0.16 nM |
| CC[C@H](C)[C@@H](C(=O)N[C@@H](CC(C)C)C(=O)N[C@@H](CO)C(=O)N[C@@H](CO)C(=O)N[C@H](C(=O)N[C@@H](CCC(=O)O)C(=O)N[C@H](C(=O)NCC(=O)N[C@@H](CO)C(=O)N[C@@H](CO)C(=O)N[C@H](C(=O)N1C[C@H](O)C[C@H]1C(N)=O)[C@@H](C)O)C(C)C)[C@@H](C)O)N(C)C(=O)[C@H](C)NC(=O)CN(C)C(=O)[C@H](Cc1ccccc1)NC(=O)[C@H](CO)NC(=O)[C@H](CO)NC(=O)[C@H](CCCNC(=N)N)NC(=O)[C@H](Cc1c[nH]cn1)NC(=O)[C@H](CC(C)C)NC(=O)[C@H](Cc1ccccc1)NC(=O)[C@H](Cc1c[nH]cn1)NC(=O)[C@H](C)NC(=O)[C@H](CC(C)C)NC(=O)[C@H](CCCNC(=N)N)NC(=O)[C@H](CCC(=O)O)NC(=O)[C@@H](NC(=O)[C@H](C)NC(=O)[C@@H]1CSSC[C@H](NC(=O)[C@H](CCCNC(=N)N)NC(=O)CC[C@H](NC(=O)CCCCCCCCCCCCCCCCCCC(=O)O)C(=O)O)C(=O)NCC(=O)N[C@@H]([C@@H](C)O)C(=O)N[C@@H](C)C(=O)N[C@@H]([C@@H](C)O)C(=O)N1)[C@@H](C)O [Compound 30, [19CD]-isoGlu-R-C( )-GTAT-C( )-ATERLAHFLHRSSF-Gly(Me)-A-Ile(Me)-LSSTEVGSST-Hyp-NH2] ({C20 diacid-γGlu}-RCGTATCATERLAHFLHRSSF[Sar]A[NMeI]LSSTEVGSST[Hyp]-NH2; disulfide 2-7) | 0.07 nM | FND | FD | FD | 0.12 nM |
